Laboratory results reported in PMC4345494, “Cheaper faster drug development validated by the repositioning of drugs against neglected tropical diseases” (Journal of the Royal Society Interface, 2015).

Target: P. vivax DHFR (dihydrofolate reductase) (Plasmodium vivax, UniProt O02604)
Test: DHFR enzyme inhibition assay (supported by growth assay of yeast expressing PvDHFR)
Type: biochemical

Sequence of P. vivax DHFR (dihydrofolate reductase) (O02604 1-237): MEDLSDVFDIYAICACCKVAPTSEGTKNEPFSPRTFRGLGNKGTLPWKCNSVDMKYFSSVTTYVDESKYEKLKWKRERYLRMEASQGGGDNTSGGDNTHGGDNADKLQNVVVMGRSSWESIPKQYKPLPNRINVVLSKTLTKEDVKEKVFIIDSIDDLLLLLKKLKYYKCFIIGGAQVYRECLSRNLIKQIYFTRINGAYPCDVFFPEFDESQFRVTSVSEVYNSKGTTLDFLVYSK

CO[C@@H]1[C@H](OC(=O)NC(=O)CCl)CC[C@]2(CO2)[C@H]1[C@@]1(C)O[C@@H]1CC=C(C)C [TNP-470]
IC50: 160 nM
